A short description of data set [1]: Prodrug half-life in vitro, plasma method (minipig heparin plasma). Format: in vitro ADME. Particulars: minipig heparin plasma 800 μL + 200 μL 200 mM phosphate pH 7.4, 37° C.; UPLC_A, or UPLC_B for compounds marked *; read-out: T½ in plasma (converted). The procedure: (§1) The purpose of this example is to test the in vitro half-lives (T½) of the GLP-1 prodrugs of the invention, in comparison to conceptually different prodrugs. In what follows two in vitro methods are described, viz. a method conducted in buffer, and a method conducted in plasma.
(§2) The half life of the prodrug (T½) was calculated from the slope of a linear fit to the curve of ln(% prodrug (Y)) as a function of time (t), as follows: Y=÷αt+k Math. 1 T½=ln(2)/α Math. 2 Plasma Method Buffer: 200 mM Phosphate, pH 7.4 at 37° C.
NaH2PO4.2H2O (15.61 g, 100 mmol) was dissolved in milliQ water (approximately 450 mL) and adjusted to pH=7.44 at approximately 20° C. with concentrated NaOH (aq) and 1 M NaOH (aq). Water was added to 500.00 mL.
Serum: Minipig Serum, Heparin-Plasma
Fresh blood was tapped from minipig into 9 mL LH lithium heparin Vacuette tubes from Greiner bio-one (catalogue number 455084). After cooling on ice it was centrifuged (10 min, 4° C., 3000 rpm/1942G) and the supernatant isolated and kept at −18° C. before use.
100 nmol of the compound to be tested was dissolved in 200 μL buffer, added to 800 μL plasma (centrifuged), and incubated at 37° C. Samples (50 μL) were drawn at appropriate intervals into 150 μL absolute EtOH. After a short stirring the sample was centrifuged and the supernatant transferred to the UPLC vial (10 μL injection).
The % parent drug compared to prodrug formed as a function of time was evaluated by UPLC, and the half-life calculated, both in the same way as described above under the Buffer method.

Data set [2] in a line: Prodrug half-life in vitro, buffer method. Format: physicochemical. Particulars: 25 mM phosphate buffer pH 7.4, 37° C., 1.0 mg/mL; UPLC_A, or UPLC_B for compounds marked *; read-out: T½ in buffer (converted). The procedure:
as §1
Buffer: 25 mM Phosphate (Ionic strength: 154 mM, pH 7.4 at 37° C.)
NaH2PO4.2H2O (1.95 g, 12.5 mmol) and NaCl (2.61 g, 44.7 mmol) were dissolved in millipore water (approximately 450 mL) and adjusted to pH=7.44 at approximately 20° C. with concentrated NaOH and 1 M NaOH. Water was added to 500.00 mL.
The compound to be tested was dissolved in buffer to a concentration of 1.0 mg/mL and incubated at 37° C. Samples were taken at adequate intervals and the % parent drug compared to prodrug formed as function of time was evaluated by the UPLC method as referred to in Table 1 by comparing the areas under the curves for the two corresponding peaks. These UPLC methods are described in the general experimental section above (UPLC_A, and UPLC_B).
as §2
The resulting half-lives are set out in Table 1 below. For comparison, the T½ in buffer of native GLP-1(7-37) (His7 variant of SEQ ID NO: 1) was 13 minutes (0.2 hours).

Numbered stars: 1 amine (or outer) side, 2 acyl side, 3 side chain; on linkers, the order of the positions; unused ones are H or OH. Square brackets hold non-standard residues; d marks the D form. Side chains are listed from the residue outwards. Peptide text beside a SMILES is read from it. * marks the point of attachment. Decanoyl(10-(4-HOOC-PhO)) = O=C(O)c1ccc(OCCCCCCCCCC(=O)*)cc1; Lac(3-(imidazol-4-yl)) = O=C(O)[C@@H](O)Cc1c[nH]cn1; γGlu = O=C(O)[C@H](CCC(=O)[*:2])N[*:1]; NMeI = CC[C@H](C)[C@H](NC)C(=O)O; NMeV = CN[C@H](C(=O)O)C(C)C; AEEA = NCCOCCOCC(=O)O; Sar = CNCC(=O)O

In the case of `CC[C@H](C)[C@H](NC)C(=O)N[C@H](C(=O)O[C@@H](Cc1c[nH]cn1)C(=O)N[C@@H](C)C(=O)N[C@@H](CCC(=O)O)C(=O)NCC(=O)N[C@H](C(=O)N[C@@H](Cc1ccccc1)C(=O)N[C@H](C(=O)N[C@@H](CO)C(=O)N[C@@H](CC(=O)O)C(=O)N[C@H](C(=O)N[C@@H](CO)C(=O)N[C@@H](CCCCNC(=O)COCCOCCNC(=O)COCCOCCNC(=O)CC[C@H](NC(=O)CCCCCCCCCOc1ccc(C(=O)O)cc1)C(=O)O)C(=O)N[C@@H](Cc1ccc(O)cc1)C(=O)N[C@@H](CC(C)C)C(=O)N[C@@H](CCC(=O)O)C(=O)N[C@@H](CCC(=O)O)C(=O)N[C@@H](CCC(N)=O)C(=O)N[C@@H](C)C(=O)N[C@H](C(=O)N[C@@H](CCCNC(=N)N)C(=O)N[C@@H](CCC(=O)O)C(=O)N[C@@H](Cc1ccccc1)C(=O)N[C@H](C(=O)N[C@@H](C)C(=O)N[C@@H](CCCCNC(=O)COCCOCCNC(=O)COCCOCCNC(=O)CC[C@H](NC(=O)CCCCCCCCCOc1ccc(C(=O)O)cc1)C(=O)O)C(=O)N[C@@H](CC(C)C)C(=O)N[C@H](C(=O)N[C@@H](CCCNC(=N)N)C(=O)NCC(=O)N[C@@H](CCCNC(=N)N)C(=O)NCC(=O)O)C(C)C)[C@@H](C)CC)C(C)C)C(C)C)[C@@H](C)O)[C@@H](C)O)C(C)C` [Example 3] (H-[NMeI]V[Lac(3-(imidazol-4-yl))]AEGTFTSDVSK([AEEA-AEEA-γGlu-Decanoyl(10-(4-HOOC-PhO))])YLEEQAVREFIAK([AEEA-AEEA-γGlu-Decanoyl(10-(4-HOOC-PhO))])LVRGRG-OH), the half-life in data set [1] is 25.6 h. Further, in data set [2], the half-life at 1 mg/mL is 38.5 h.

On to `CC[C@H](C)[C@H](NC)C(=O)N[C@H](C(=O)O[C@@H](Cc1c[nH]cn1)C(=O)N[C@@H](C)C(=O)N[C@@H](CCC(=O)O)C(=O)NCC(=O)N[C@H](C(=O)N[C@@H](Cc1ccccc1)C(=O)N[C@H](C(=O)N[C@@H](CO)C(=O)N[C@@H](CC(=O)O)C(=O)N[C@H](C(=O)N[C@@H](CO)C(=O)N[C@@H](CCCCNC(=O)COCCOCCNC(=O)COCCOCCNC(=O)CC[C@H](NC(=O)CCCCCCCCCOc1ccc(C(=O)O)cc1)C(=O)O)C(=O)N[C@@H](Cc1ccc(O)cc1)C(=O)N[C@@H](CC(C)C)C(=O)N[C@@H](CCC(=O)O)C(=O)N[C@@H](CCC(=O)O)C(=O)N[C@@H](CCC(N)=O)C(=O)N[C@@H](C)C(=O)N[C@@H](C)C(=O)N[C@@H](CCCCNC(=O)COCCOCCNC(=O)COCCOCCNC(=O)CC[C@H](NC(=O)CCCCCCCCCOc1ccc(C(=O)O)cc1)C(=O)O)C(=O)N[C@@H](CCC(=O)O)C(=O)N[C@@H](Cc1ccccc1)C(=O)N[C@H](C(=O)N[C@@H](C)C(=O)N[C@@H](Cc1c[nH]c2ccccc12)C(=O)N[C@@H](CC(C)C)C(=O)N[C@H](C(=O)N[C@@H](CCC(N)=O)C(=O)NCC(=O)N[C@@H](CCCNC(=N)N)C(=O)NCC(=O)O)C(C)C)[C@@H](C)CC)C(C)C)[C@@H](C)O)[C@@H](C)O)C(C)C` [Example 5], for which the half-life is 32.2 h in data set [1] and 37.9 h in data set [2].

Turning to `CC[C@H](C)[C@H](NC(=O)[C@H](Cc1ccccc1)NC(=O)[C@H](CCC(=O)O)NC(=O)[C@H](CCCNC(=N)N)NC(=O)[C@@H](NC(=O)[C@H](C)NC(=O)[C@H](CCC(N)=O)NC(=O)[C@H](CCC(=O)O)NC(=O)[C@H](CCC(=O)O)NC(=O)[C@H](CC(C)C)NC(=O)[C@H](Cc1ccc(O)cc1)NC(=O)[C@H](CCCCNC(=O)COCCOCCNC(=O)COCCOCCNC(=O)CC[C@H](NC(=O)CCCCCCCCCOc1ccc(C(=O)O)cc1)C(=O)O)NC(=O)[C@H](CO)NC(=O)[C@@H](NC(=O)[C@H](CC(=O)O)NC(=O)[C@H](CO)NC(=O)[C@@H](NC(=O)[C@H](Cc1ccccc1)NC(=O)[C@@H](NC(=O)CNC(=O)[C@H](CCC(=O)O)NC(=O)[C@H](C)NC(=O)[C@H](Cc1c[nH]cn1)OC(=O)[C@@H](NC(=O)CNC)C(C)C)[C@@H](C)O)[C@@H](C)O)C(C)C)C(C)C)C(=O)N[C@@H](C)C(=O)N[C@@H](CCCCNC(=O)COCCOCCNC(=O)COCCOCCNC(=O)CC[C@H](NC(=O)CCCCCCCCCOc1ccc(C(=O)O)cc1)C(=O)O)C(=O)N[C@@H](CC(C)C)C(=O)N[C@H](C(=O)N[C@@H](CCCNC(=N)N)C(=O)NCC(=O)N[C@@H](CCCNC(=N)N)C(=O)NCC(=O)O)C(C)C` [Example 1] (H-[Sar]V[Lac(3-(imidazol-4-yl))]AEGTFTSDVSK([AEEA-AEEA-γGlu-Decanoyl(10-(4-HOOC-PhO))])YLEEQAVREFIAK([AEEA-AEEA-γGlu-Decanoyl(10-(4-HOOC-PhO))])LVRGRG-OH), the half-life in data set [1] is 3.6 h. In addition, the half-life at 1 mg/mL in data set [2] is 9.6 h.

For `CC[C@H](C)[C@H](NC(=O)[C@H](Cc1ccccc1)NC(=O)[C@H](CCC(=O)O)NC(=O)[C@H](CCCNC(=N)N)NC(=O)[C@@H](NC(=O)[C@H](C)NC(=O)[C@H](CCC(N)=O)NC(=O)[C@H](CCC(=O)O)NC(=O)[C@H](CCC(=O)O)NC(=O)[C@H](CC(C)C)NC(=O)[C@H](Cc1ccc(O)cc1)NC(=O)[C@H](CCCCNC(=O)COCCOCCNC(=O)COCCOCCNC(=O)CC[C@H](NC(=O)CCCCCCCCCOc1ccc(C(=O)O)cc1)C(=O)O)NC(=O)[C@H](CO)NC(=O)[C@@H](NC(=O)[C@H](CC(=O)O)NC(=O)[C@H](CO)NC(=O)[C@@H](NC(=O)[C@H](Cc1ccccc1)NC(=O)[C@@H](NC(=O)CNC(=O)[C@H](CCC(=O)O)NC(=O)[C@H](C)NC(=O)[C@H](Cc1c[nH]cn1)OC(=O)[C@@H](NC(=O)[C@@H](NC)C(C)C)C(C)C)[C@@H](C)O)[C@@H](C)O)C(C)C)C(C)C)C(=O)N[C@@H](C)C(=O)N[C@@H](CCCCNC(=O)COCCOCCNC(=O)COCCOCCNC(=O)CC[C@H](NC(=O)CCCCCCCCCOc1ccc(C(=O)O)cc1)C(=O)O)C(=O)N[C@@H](CC(C)C)C(=O)N[C@H](C(=O)N[C@@H](CCCNC(=N)N)C(=O)NCC(=O)N[C@@H](CCCNC(=N)N)C(=O)NCC(=O)O)C(C)C` [Example 2] (H-[NMeV]V[Lac(3-(imidazol-4-yl))]AEGTFTSDVSK([AEEA-AEEA-γGlu-Decanoyl(10-(4-HOOC-PhO))])YLEEQAVREFIAK([AEEA-AEEA-γGlu-Decanoyl(10-(4-HOOC-PhO))])LVRGRG-OH), in data set [1], the half-life was 27.5 h. Also, the half-life at 1 mg/mL in data set [2] was 42.5 h.

For `CC[C@H](C)[C@H](N)C(=O)N[C@H](C(=O)O[C@@H](Cc1c[nH]cn1)C(=O)N[C@@H](C)C(=O)N[C@@H](CCC(=O)O)C(=O)NCC(=O)N[C@H](C(=O)N[C@@H](Cc1ccccc1)C(=O)N[C@H](C(=O)N[C@@H](CO)C(=O)N[C@@H](CC(=O)O)C(=O)N[C@H](C(=O)N[C@@H](CO)C(=O)N[C@@H](CCCCNC(=O)COCCOCCNC(=O)COCCOCCNC(=O)CC[C@H](NC(=O)CCCCCCCCCOc1ccc(C(=O)O)cc1)C(=O)O)C(=O)N[C@@H](Cc1ccc(O)cc1)C(=O)N[C@@H](CC(C)C)C(=O)N[C@@H](CCC(=O)O)C(=O)N[C@@H](CCC(=O)O)C(=O)N[C@@H](CCC(N)=O)C(=O)N[C@@H](C)C(=O)N[C@H](C(=O)N[C@@H](CCCNC(=N)N)C(=O)N[C@@H](CCC(=O)O)C(=O)N[C@@H](Cc1ccccc1)C(=O)N[C@H](C(=O)N[C@@H](C)C(=O)N[C@@H](CCCCNC(=O)COCCOCCNC(=O)COCCOCCNC(=O)CC[C@H](NC(=O)CCCCCCCCCOc1ccc(C(=O)O)cc1)C(=O)O)C(=O)N[C@@H](CC(C)C)C(=O)N[C@H](C(=O)N[C@@H](CCCNC(=N)N)C(=O)NCC(=O)N[C@@H](CCCNC(=N)N)C(=O)NCC(=O)O)C(C)C)[C@@H](C)CC)C(C)C)C(C)C)[C@@H](C)O)[C@@H](C)O)C(C)C` [Example 3a] (H-IV[Lac(3-(imidazol-4-yl))]AEGTFTSDVSK([AEEA-AEEA-γGlu-Decanoyl(10-(4-HOOC-PhO))])YLEEQAVREFIAK([AEEA-AEEA-γGlu-Decanoyl(10-(4-HOOC-PhO))])LVRGRG-OH), the half-life in data set [1] is 5 h. Moreover, the half-life at 1 mg/mL in data set [2] was 7.5 h.

(Values after US9452225B2, “GLP-1 prodrugs” (Novo Nordisk A/S, priority 2012, dated 2016).)
